The text below walks through data of article PMC4776319 (Water research, 2015).

Read-outs that look alike come from different tables or passages of the source.

The EC50 is the concentration giving half of the maximal effect.

For data set [1], the system named is neuroblastoma cells (SK-N-SH).
The target of data set [2] is T1, glucocorticoid receptor (GR) (Homo sapiens, UniProt P04150).
T1 sequence (P04150 1-777): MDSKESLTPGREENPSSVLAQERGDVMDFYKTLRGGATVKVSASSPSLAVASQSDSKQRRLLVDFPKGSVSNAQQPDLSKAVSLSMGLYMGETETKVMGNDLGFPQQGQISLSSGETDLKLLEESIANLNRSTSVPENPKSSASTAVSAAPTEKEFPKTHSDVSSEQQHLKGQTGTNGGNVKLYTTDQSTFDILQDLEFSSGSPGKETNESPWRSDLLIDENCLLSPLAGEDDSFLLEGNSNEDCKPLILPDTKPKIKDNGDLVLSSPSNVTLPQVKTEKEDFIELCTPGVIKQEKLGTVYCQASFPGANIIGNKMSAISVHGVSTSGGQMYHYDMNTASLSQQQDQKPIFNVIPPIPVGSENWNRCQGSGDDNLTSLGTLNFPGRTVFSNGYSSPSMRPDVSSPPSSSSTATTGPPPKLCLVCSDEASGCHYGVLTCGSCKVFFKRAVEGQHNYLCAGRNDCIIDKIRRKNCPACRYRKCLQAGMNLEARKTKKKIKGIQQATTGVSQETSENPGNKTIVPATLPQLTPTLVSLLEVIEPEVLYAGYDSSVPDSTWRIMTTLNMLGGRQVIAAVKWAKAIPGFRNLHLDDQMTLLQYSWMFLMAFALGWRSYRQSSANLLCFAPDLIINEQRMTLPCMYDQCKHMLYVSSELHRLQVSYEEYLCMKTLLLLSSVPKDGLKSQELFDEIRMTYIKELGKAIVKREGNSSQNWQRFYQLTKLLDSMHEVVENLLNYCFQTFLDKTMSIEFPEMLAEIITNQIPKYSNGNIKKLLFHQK
Put plainly: GR-Switchgear. To be noted: reference chemical. In kind it is cell-based.

Data set [3] has as its system monocyte cell line (THP1). To be noted: read-out: EC50 value in literature; ref Leusch et al., 2014; cited from earlier work.
Data set [4] relates to monocyte cell line (THP1). Put plainly: THP1-cp cytokine production.
In data set [5] the test system is algae photosynthesis. Put plainly: I-PAM algae photosynthesis inhibition. In kind it is cell-based.
The subject of data set [6] is algae growth. The data set is described as follows: Algae growth inhibition. In kind it is cell-based.
Data set [7] relates to algae photosynthesis. To be noted: read-out: EC50 value in literature, cited from earlier work.
In data set [8] the test system is algae growth. To be noted: read-out: EC50 value in literature; ref Escher et al., 2008a; cited from earlier work.
Data set [9] deals with T2, peroxisome proliferator-activated receptor (PPARγ) (Homo sapiens, UniProt P37231).
T2 sequence (P37231 238-505 limits assumed): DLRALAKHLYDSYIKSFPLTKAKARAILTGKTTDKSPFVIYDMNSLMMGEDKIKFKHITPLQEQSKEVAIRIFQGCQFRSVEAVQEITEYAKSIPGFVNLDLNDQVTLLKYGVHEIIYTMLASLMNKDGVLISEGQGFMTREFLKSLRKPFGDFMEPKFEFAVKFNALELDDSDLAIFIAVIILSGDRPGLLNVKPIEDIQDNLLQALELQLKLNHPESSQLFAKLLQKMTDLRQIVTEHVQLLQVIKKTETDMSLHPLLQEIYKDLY
Put plainly: PPARγ-GeneBLAzer-Anta. Type of data set: cell-based. To be noted: antagonist mode.

In data set [10] the target is T2, peroxisome proliferator-activated receptor (PPARγ). To be noted: read-out: EC50 value in literature; antagonist mode; ref Invitrogen, 2007b; cited from earlier work.
The target in data set [11] is T3, progesterone receptor (PR) (Homo sapiens, UniProt P06401).
T3 sequence (P06401 1-933): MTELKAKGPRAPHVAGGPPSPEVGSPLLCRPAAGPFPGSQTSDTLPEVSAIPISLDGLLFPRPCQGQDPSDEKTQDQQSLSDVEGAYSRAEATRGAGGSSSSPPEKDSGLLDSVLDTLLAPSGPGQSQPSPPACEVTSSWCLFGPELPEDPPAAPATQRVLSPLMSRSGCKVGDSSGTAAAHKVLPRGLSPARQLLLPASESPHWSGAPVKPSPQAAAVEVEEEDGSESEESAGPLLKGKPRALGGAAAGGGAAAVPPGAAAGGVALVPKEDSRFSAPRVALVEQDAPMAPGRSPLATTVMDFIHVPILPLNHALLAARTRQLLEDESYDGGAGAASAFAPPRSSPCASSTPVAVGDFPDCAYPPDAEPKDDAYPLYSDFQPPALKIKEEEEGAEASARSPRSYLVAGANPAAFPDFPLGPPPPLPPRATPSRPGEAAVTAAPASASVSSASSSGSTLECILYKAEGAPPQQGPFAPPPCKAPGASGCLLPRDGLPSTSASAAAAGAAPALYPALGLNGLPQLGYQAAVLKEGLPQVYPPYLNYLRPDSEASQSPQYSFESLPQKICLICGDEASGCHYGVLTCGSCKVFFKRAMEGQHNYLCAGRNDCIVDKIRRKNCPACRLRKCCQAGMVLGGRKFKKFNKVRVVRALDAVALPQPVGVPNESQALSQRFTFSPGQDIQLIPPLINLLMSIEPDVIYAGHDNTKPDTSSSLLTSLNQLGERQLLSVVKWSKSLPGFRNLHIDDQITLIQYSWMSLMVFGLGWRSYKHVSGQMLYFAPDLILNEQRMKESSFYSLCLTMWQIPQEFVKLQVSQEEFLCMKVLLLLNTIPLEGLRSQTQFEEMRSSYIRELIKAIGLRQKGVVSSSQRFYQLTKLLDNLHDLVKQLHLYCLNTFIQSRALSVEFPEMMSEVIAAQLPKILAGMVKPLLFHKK
Put plainly: PR-CALUX progestagenic effects. In kind it is cell-based. To be noted: reference chemical.

For the next data set, the system named is Caco-2 cells. The data set is described as follows: Caco-2 NRU cytotoxicity. In kind it is cell-based, human. To be noted: carrier solvent as positive control.
The target in data set [12] is T3, progesterone receptor (PR). The data set is described as follows: PR-CALUX-Anta. In kind it is cell-based. To be noted: antagonist mode, 20% suppression.
In the next data set the test system is Jurkat cell line. Put plainly: Jurkat E6-1 osmotic stress assay. In kind it is cell-based. To be noted: reference chemical.
Data set [13] concerns arylhydrocarbon receptor (AhR). The data set is described as follows: AhR CAFLUX. To be noted: reference chemical. Type of data set: cell-based.
The subject of data set [14] is arylhydrocarbon receptor (AhR). To be noted: read-out: EC50 value in literature; ref Macova et al., 2010; cited from earlier work.
The subject of data set [15] is thyroid activity (cell proliferation). The data set is described as follows: T-SCREEN cell proliferation assay, thyroid effects. Type of data set: cell-based.
Data set [16] has the same test system. To be noted: read-out: EC50 value in literature; ref Gutleb et al., 2005; cited from earlier work.
For data set [17], the system named is Nrf2-MDA-MB cells. The data set is described as follows: cells. In kind it is cell-based, human.
The subject of the next data set is Nrf2-Keap-ARE32 pathway. To be noted: read-out: EC50 value in literature; ref Escher et al., 2012; cited from earlier work.
Data set [18] relates to Nrf2-MDA-MB cells. To be noted: read-out: EC50 value in literature; ref Escher et al., 2012; cited from earlier work.

On to `C[S+](C)[O-]` [DMSO, Dimethylsulfoxide], for which the EC10 in [1] was 0.11 M.

With `C[C@@H]1C[C@H]2[C@@H]3CCC4=CC(=O)C=C[C@]4(C)[C@@]3(F)[C@@H](O)C[C@]2(C)[C@@]1(O)C(=O)CO` [Dexamethasone], the values for the EC10 result in [2] and in data set [4] (reference chemical) were “EC10 (0.5 nM); EC50 (2.6 nM)” and 2.1 nM, respectively. In addition, the EC50 in [3] is 2.7 nM; in data set [4] (Homo sapiens, THP-1) it was 45 nM.

For `CN(C)C(=O)Nc1ccc(Cl)c(Cl)c1` [Diuron], the EC50 in the data set with algae photosynthesis [5] is 6 nM; in the data set with algae growth [6], 25 nM; in the data set with algae photosynthesis [7] (ref Escher et al., 2008a), 12.8 nM; in the data set with algae photosynthesis [7] (ref Macova et al., 2010) it was 68.6 nM; in the data set with algae growth [8] it was 135 nM.

`O=C(Nc1ccccc1)c1cc([N+](=O)[O-])ccc1Cl` [GW9662] had an ECSR0.2 in [9] (20% suppression) of 3.0 nM. Further, in [9] (read-out: ECSR0.5, 50% suppression), the IC50 worked out at 8.4 nM. Also, the EC50 in [10] was 3.5 nM.

For the compound `C#C[C@]1(O)CC[C@H]2[C@@H]3CCC4=CC(=O)CC[C@@H]4[C@H]3CC[C@@]21CC` [Levonorgestrel], the EC10 in data set [11] came to 0.3 nM.

Compound `CO` [Methanol] had an EC10 with Caco-2 cells of 0.4 M.

As for `CC#C[C@]1(O)CC[C@H]2[C@@H]3CCC4=CC(=O)CCC4=C3[C@@H](c3ccc(N(C)C)cc3)C[C@@]21C` [Mifepristone], the ECSR0.2 in [12] was 20 pM.

In the data set with Jurkat cell line, `CCCCCCCCCCCCCC(=O)O[C@@H]1[C@@H](C)[C@@]2(O)[C@@H](C=C(CO)C[C@]3(O)C(=O)C(C)=C[C@@H]23)[C@@H]2C(C)(C)[C@]12OC(C)=O` [PMA, Phorbol-12-myristate-13-acetate] showed an EC10 of 3 nM and an EC50 of 20 nM.

For the compound `Clc1cc2c(cc1Cl)Oc1cc(Cl)c(Cl)cc1O2` [TCDD, 2,3,7,8-TCDD], the EC10 in data set [13] was determined as 0.00065 nM. In addition, the EC50 is 0.008 nM in data set [13] and 0.0248 nM in [14].

Turning to `N[C@@H](Cc1cc(I)c(Oc2ccc(O)c(I)c2)c(I)c1)C(=O)O` [Triiodothyronine], the EC50 in data set [15] is 0.74 nM; in data set [16] it was 0.191 nM. In data set [15] (reference chemical), the EC10 was determined as 0.28 nM.

As for `CC(C)(C)c1cc(O)ccc1O` [tBHQ, tert-Butylhydroquinone], the values for the EC50 in the data set with Nrf2-MDA-MB cells [17] (Homo sapiens), in the data set with Nrf2-Keap-ARE32 pathway and in the data set on Nrf2-MDA-MB cells [18] were 178000 nM, 1320 nM and 46000 nM, respectively. In addition, the EC10 with Nrf2-MDA-MB cells [17] (human) came to 103000 nM.
